Here are results for seven compounds from patent US5126506A, “2',3'-Dideoxy-2'-fluoronucleosides” (Bristol-Myers Company, priority 1990, dated 1992).

The test system of data set [1] is HIV. Put plainly: Inhibition of cytopathic effect (CPE) in HTLV-1 transformed MT-2 cells infected with HIV virus. The settings on record: MT2, 168 h, anti-HIV in vitro, inhibition of CPE measured seven days after infection, read-out: ID50 (50% inhib. conc.). It counts as cell-based. The procedure:
The assays were done in HTLV-1 transformed MT-2 cells infected with HIV virus. Inhibition of cytopathic effect CPE) was measured seven days after infection in comparison with control infected cells (Elaine Kinney-Thomas,(Bioch. Pharm., vol.36,pp 311-316, 1987).

The subject of data set [2] is HIV. As to conditions: cited from earlier work; for anti-HIV activity: statement in words.
The conditions of data set [3]: compared with ddA; cited from earlier work.

`Cc1cn([C@@H]2O[C@H](CO)C=C2F)c(=O)[nH]c1=O` [Compound 11, 2',3'-Dideoxy-2'3'-didehydro-2'-fluoro-thymidine]: the IC50 in the data set with HIV [1] fell in the range of 10 to 100 µM.

Take `Cc1cn([C@@H]2O[C@H](CO)[C@@H](N=[N+]=[N-])[C@@H]2F)c(=O)[nH]c1=O` [Compound 17, 2',3'-Dideoxy-2'-fluoroarabino-3'-azido-thymidine]: the IC50 in the data set on HIV [1] is above 100 µM.

On to `Nc1ncnc2c1ncn2[C@@H]1O[C@H](CO)C[C@@H]1F` [Compound C, 6-amino-9-(β-D-2',3'-dideoxy-2'-fluoroarabinofuranosyl)-H-purine], for which the “activity and potency against HIV relative to AZT or ddA” value in the data set with HIV [2] (compared with AZT or ddA) is “about as active and potent as AZT or ddA”. In addition, the anti-HIV activity entry in the data set on HIV [2] is given as “active anti-HIV agents”.

Regarding `Cc1cn([C@@H]2O[C@H](CO)C[C@@H]2F)c(=O)[nH]c1=O` [Compound 7, 2', 3'-Dideoxy-2'-fluoroarabino-thymidine], the IC50 with HIV [1] was above 100 µM.

Turning to `Nc1ncnc2c1ncn2[C@@H]1O[C@H](CO)C[C@H]1F` [Compound B, 6-amino-(β'D-2',3'-dideoxy-2'-fluororibofuranosyl)-9-H-purine], in the data set on HIV [2] (% of protection seen with ddA), the “protection against HIV relative to that seen with ddA” value is recorded as 13%. In the data set on HIV [2], the anti-HIV activity result is on record as “active anti-HIV agents”. In data set [3], the “toxicity relative to ddA” value is given as “more toxic than ddA”.

On to `Nc1ccn([C@@H]2O[C@H](CO)C=C2F)c(=O)n1` [Compound 16, 2',3'-Dideoxy-2',3'-dehydro-2'-fluoro-cytidine], for which, in the data set with HIV [1], the IC50 lay in the range of 15 to 48 µM.

For the compound `Nc1ccn([C@@H]2O[C@H](CO)C[C@@H]2F)c(=O)n1` [Compound 5, 2',3'-Dideoxy-2'-fluoroarabino-cytidine], in the data set on HIV [1], the IC50 was found to be 4 µM.
